According to US20260001871A1, “TRIAZOLE DERIVATIVES AS MODULATORS OF MAS-RELATED G-PROTEIN RECEPTOR D” (ESCIENT PHARMACEUTICALS, INC., priority 2022, published 2026):

Molecular target: human MRGPRD (Homo sapiens, UniProt Q8TDS7)
Experiment: MRGPRD antagonist activity, IP-One HTRF assay in CHO cells stably expressing human MRGPRD (versus 100 μM β-Alanine agonist)
Format: cell-based
Summary of the method: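 IP-1 HTRF read-out, with IC50 from HTRF ratio curves and percent antagonism relative to maximal efficacy (mean, SEM). Antagonists and agonist were co-incubated 1 h at 37 °C plus 1 h at room temperature on overnight-plated MRGPRD-CHO cells in LiCl-containing Tris buffer, pH 8.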

Sequence of human MRGPRD (Q8TDS7 whole entry): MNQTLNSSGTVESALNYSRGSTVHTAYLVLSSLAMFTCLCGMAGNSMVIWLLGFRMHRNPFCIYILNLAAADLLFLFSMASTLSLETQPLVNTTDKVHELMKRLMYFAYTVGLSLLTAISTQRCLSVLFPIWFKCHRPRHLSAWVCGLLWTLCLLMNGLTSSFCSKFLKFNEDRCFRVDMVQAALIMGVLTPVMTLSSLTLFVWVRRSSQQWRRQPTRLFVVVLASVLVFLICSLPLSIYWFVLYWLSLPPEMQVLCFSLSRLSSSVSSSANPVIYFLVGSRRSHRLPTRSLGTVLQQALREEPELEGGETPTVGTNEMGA

IC50 [nM] | SMILES
500 to 1000 | COCn1cc(-c2ccc(-n3nnc(C(=O)Nc4ccncc4)c3C3CC3)cc2)cn1 [Compound 7-158]
500 to 1000 | CC(O)c1cccc(-c2ccc(-n3nnc(C(=O)Nc4ccncc4)c3C3CC3)cc2)c1 (stereo not drawn) [Compound 7-117]
1000 to 3000 | O=C(Nc1ccncc1)c1nnn(-c2cccc(-c3cnn(C4CC4)c3)c2)c1C1CC1 [Compound 7-314]
500 to 1000 | O=C(Nc1ccncc1)c1nnn(-c2ccc(-c3ccnn3-c3ccccc3)cc2)c1C1CC1 [Compound 7-156]
500 to 1000 | Cc1nn(-c2ccccc2)c(C)c1-c1ccc(-n2nnc(C(=O)Nc3ccc(NS(C)(=O)=O)cc3)c2C2CC2)cc1 [Compound 9-27]
> 3000 | Cn1nc(-c2ccc(-n3nnc(C(=O)Nc4ccncc4)c3C3CC3)cc2)cc1N [Compound 7-215]
< 100 | Cc1nn(-c2ccccc2)c(C)c1-c1ccc(-n2nnc(C(=O)NC3(c4cccnc4)CC3)c2C2CC2)cc1 [Compound 18-11]
100 to 500 | Cc1ccc(C2(NC(=O)c3nnn(-c4ccc(-c5ccc(C#N)cc5C)cc4)c3C3CC3)CC2)cn1 [Compound 9-22]
500 to 1000 | N#Cc1cc(NC(=O)c2nnn(-c3ccc(-c4ccccc4)cc3)c2C2CC2)ccn1 [Compound 14-26]
500 to 1000 | O=C(Nc1ccncc1)c1nnn(-c2cccc(-c3cnn(CC(F)(F)F)c3)c2)c1C1CC1 [Compound 7-248]
500 to 1000 | COc1cc(-n2nnc(C(=O)Nc3ccncc3)c2C2CC2)ccc1-c1c(C)nn(C)c1C [Compound 7-275]
> 3000 | Cc1nc(C(C)NC(=O)c2nnn(-c3ccc(-c4ccccc4)cc3)c2C2CC2)cs1 (stereo not drawn) [Compound 14-13]
100 to 500 | CC(C)C(=O)c1ccc(-c2ccc(-n3nnc(C(=O)Nc4ccncc4)c3C3CC3)cc2)cc1 [Compound 7-74]
< 100 | Cc1cc(NC(=O)c2nnn(-c3ccc(-c4c(C)nn(C5CCC5)c4C)cc3)c2C2CC2)ccn1 [Compound 8-2, 1-(4-(1-cyclobutyl-3,5-dimethyl-1H-pyrazol-4-yl)phenyl)-5-cyclopropyl-N-(2-methylpyridin-4-yl)-1H-1,2,3-triazole-4-carboxamide]
1000 to 3000 | Cc1ccc(-n2nnc(C(=O)Nc3ccncc3)c2C2CC2)c(Cl)c1 [Compound 2-7]
1000 to 3000 | Cc1nn(C)cc1-c1cccc(-n2nnc(C(=O)Nc3ccncc3)c2C2CC2)c1 [Compound 7-316]
> 3000 | CC(C)C(NC(=O)c1nnn(-c2ccc(-c3ccccc3)cc2)c1C1CC1)c1cn[nH]c1 (stereo not drawn) [Compound 14-81]
< 100 | Cc1nn(C)c(C)c1-c1ccc(-n2nnc(C(=O)Nc3ccncc3)c2C2CC2)c(F)c1 [Compound 7-221]
500 to 1000 | O=C(Nc1ccncc1)c1nnn(-c2cccc(-c3ccc(O)cc3)c2)c1C1CC1 [Compound 7-277]
500 to 1000 | COc1cccc(-c2ccc(-n3nnc(C(=O)Nc4ccncc4)c3C3CC3)cc2)c1 [Compound 7-153]
> 3000 | CC(C)n1cc(NC(=O)c2nnn(-c3ccc(-c4ccccc4)cc3)c2C2CC2)cn1 [Compound 14-73]

IC50 [nM] | SMILES
100 to 500 | Cc1ccccc1-c1ccc(-n2nnc(C(=O)Nc3ccncc3)c2C2CC2)cc1 [Compound 7-96]
< 100 | CCn1nc(C)c(-c2ccc(-n3nnc(C(=O)Nc4ccnc(C)c4)c3C3CC3)cc2)c1C [Compound 9-1, 5-cyclopropyl-1-(4-(1-ethyl-3,5-dimethyl-1H-pyrazol-4-yl)phenyl)-N-(2-methylpyridin-4-yl)-1H-1,2,3-triazole-4-carboxamide]
100 to 500 | Cc1c(-c2ccc(-n3nnc(C(=O)Nc4ccncc4)c3C3CC3)cc2)cnn1-c1ccccc1 [Compound 7-26]
> 3000 | CCn1nc(C)cc1NC(=O)c1nnn(-c2ccc(-c3ccccc3)cc2)c1C1CC1 [Compound 14-12]
100 to 500 | CS(=O)(=O)c1ccc(-c2ccc(-n3nnc(C(=O)Nc4ccncc4)c3C3CC3)cc2)cc1 [Compound 7-93]
100 to 500 | CCn1cc(CNC(=O)c2nnn(-c3ccc(-c4cccc(CC#N)c4)cc3)c2C2CC2)cn1 [Compound 16-5]
100 to 500 | Cc1nn(C)c(C)c1-c1ccc(-n2nnc(C(=O)Nc3ccncc3)c2C2CC2)nc1 [Compound 11-1, 5-cyclopropyl-N-(pyridin-4-yl)-1-(5-(1,3,5-trimethyl-1H-pyrazol-4-yl)pyridin-2-yl)-1H-1,2,3-triazole-4-carboxamide]
100 to 500 | O=C(Nc1ccncc1)c1nnn(-c2ccc(-c3cccc(CC(F)(F)F)c3)cc2)c1C1CC1 [Compound 7-107]
500 to 1000 | O=C(Nc1ccncc1)c1nnn(-c2cccc(-c3cnn4c3CCC4)c2)c1C1CC1 [Compound 7-283]
500 to 1000 | COc1cc(C#N)ccc1-c1ccc(-n2nnc(C(=O)NC3(c4cncc(Cl)c4)CC3)c2C2CC2)cc1 [Compound 18-15]
> 3000 | CC(NC(=O)c1nnn(-c2ccc(-c3ccc(C#N)cc3)cc2)c1C1CC1)c1ccn(C)n1 (stereo not drawn) [Compound 15-10]
1000 to 3000 | O=C(Nc1ccnc2[nH]ncc12)c1nnn(-c2ccc(-c3ccccc3)cc2)c1C1CC1 [Compound 14-29]
> 3000 | Cn1cc(C(C)(C)NC(=O)c2nnn(-c3ccc(-c4ccccc4)cc3)c2C2CC2)cn1 [Compound 14-85]
100 to 500 | Cc1cc(NC(=O)c2nnn(-c3ccc(-c4c(C)nn5ccccc45)cc3)c2C(C)C)ccn1 [Compound 10-12]
> 3000 | Cc1nn(C)c(C)c1-c1ccc(-n2nnc(C(=O)Nc3ccncc3)c2C2CC2)cc1OC(F)(F)F [Compound 7-335]
100 to 500 | Cn1nc(C2CC2)cc1-c1ccc(-n2nnc(C(=O)Nc3ccncc3)c2C2CC2)cc1 [Compound 7-109]
100 to 500 | Cc1ccc(C2(NC(=O)c3nnn(-c4ccc(-c5ccc(C#N)c(F)c5)cc4)c3C3CC3)CC2)cn1 [Compound 9-7]
100 to 500 | CCn1cc(CNC(=O)c2nnn(-c3ccc(-c4ccccc4)cc3)c2C(C)C)cn1 [Compound 17-13]
> 3000 | Cc1nn(C)c2ncnc(NC(=O)c3nnn(-c4ccc(-c5ccccc5)cc4)c3C3CC3)c12 [Compound 14-14]
1000 to 3000 | O=C(N[C@H]1CCC[C@@H](O)C1)c1nnn(-c2ccc(-c3ccccc3)cc2)c1C1CC1 [Compound 14-68]
500 to 1000 | Cc1cc(NC(=O)c2nnn(-c3cccc(-c4ccn(C)n4)c3)c2C2CC2)ccn1 [Compound 7-253]
